test system: HCT116 MTAP-deleted cell lines; assay: Cell viability assay (CellTiter-Glo, 7 days), HCT116 MTAP-deleted; assay type: cell-based; details: Homo sapiens, HCT-116
Summary of the method: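 Read-out was CellTiter-Glo luminescence after a 7-day incubation (37 °C, 5% CO2) of HCT116 cells, MTAP-deleted or WT, on dose-response compound plates. CC50 values come from each line; where marked *, selectivity is overstated because poor solubility impaired the WT CC50 measurement.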

Compound | CC50
Nc1nc2cc(F)c(C(=O)N3CCC4(CC4)CC3c3ccc(C(F)(F)F)cn3)cc2n2cncc12 (stereo not drawn) [Ff-225, (4-amino-7-fluoroimidazo[1,5-a]quinoxalin-8-yl)(5-(5-(trifluoromethyl)pyridin-2-yl)-6-azaspiro[2.5]octan-6-yl)methanone] | 100 to 1000 nM

same assay, conditions: Homo sapiens, HCT-116; cell viability, HCT116 MTAP-deleted; class symbols; read-out: CC50

Compound | CC50
Cn1cc(N(Cc2ccc(-c3cnn(C(F)F)c3)cc2F)C(=O)c2cc3c(cc2F)nc(N)c2cncn23)cn1 [Ff-221, 4-amino-N-(4-(1-(difluoromethyl)-1H-pyrazol-4-yl)-2-fluorobenzyl)-7-fluoro-N-(1-methyl-1H-pyrazol-4-yl)imidazo[1,5-a]quinoxaline-8-carboxamide] | < 100 nM
Nc1nc2cc(F)c(C(=O)N3CC(F)(F)CCC3c3ccc(C(F)(F)F)cn3)cc2n2cncc12 (stereo not drawn) [Ff-222, (4-amino-7-fluoroimidazo[1,5-a]quinoxalin-8-yl)(5,5-difluoro-2-(5-(trifluoromethyl)pyridin-2-yl)piperidin-1-yl)methanone] | < 100 nM
Nc1nc2cc(F)c(C(=O)N3CCC(F)(F)CC3c3ccc(C(F)(F)F)cn3)cc2n2cncc12 (stereo not drawn) [Ff-223, (4-amino-7-fluoroimidazo[1,5-a]quinoxalin-8-yl)(4,4-difluoro-2-(5-(trifluoromethyl)pyridin-2-yl)piperidin-1-yl)methanone] | 100 to 1000 nM
C[C@@H]1CCN(C(=O)c2cc3c(cc2F)nc(N)c2cncn23)C(c2ccc(C(F)(F)F)cn2)C1 (stereo partly drawn) [Ff-224, (4-amino-7-fluoroimidazo[1,5-a]quinoxalin-8-yl)((4R)-4-methyl-2-(5-(trifluoromethyl)pyridin-2-yl)piperidin-1-yl)methanone] | 100 to 1000 nM
Nc1nc2cc(F)c(C(=O)N(Cc3ccc(C(F)(F)F)cc3F)c3ncco3)cc2n2cncc12 [Ff-226, 4-amino-7-fluoro-N-(2-fluoro-4-(trifluoromethyl)benzyl)-N-(oxazol-2-yl)imidazo[1,5-a]quinoxaline-8-carboxamide] | < 100 nM
Nc1nc2cc(F)c(C(=O)N(Cc3ccc(C(F)(F)F)cc3F)c3cnsc3)cc2n2cncc12 [Ff-227, 4-amino-7-fluoro-N-(2-fluoro-4-(trifluoromethyl)benzyl)-N-(isothiazol-4-yl)imidazo[1,5-a]quinoxaline-8-carboxamide] | < 100 nM
CN(C(=O)c1cc2c(cc1F)nc(N)c1cncn12)[C@@H]1COc2cc(-c3ccc(C(F)(F)F)nc3)ccc21 [Ff-229, (S)-4-amino-7-fluoro-N-methyl-N-(6-(6-(trifluoromethyl)pyridin-3-yl)-2,3-dihydrobenzofuran-3-yl)imidazo[1,5-a]quinoxaline-8-carboxamide] | < 100 nM
CN(C(=O)c1cc2c(cc1F)nc(N)c1cncn12)[C@@H]1COc2cc(-c3ccc(C(F)(F)F)cc3)ccc21 [Ff-230, (S)-4-amino-7-fluoro-N-methyl-N-(6-(4-(trifluoromethyl)phenyl)-2,3-dihydrobenzofuran-3-yl)imidazo[1,5-a]quinoxaline-8-carboxamide] | 100 to 1000 nM
CN(C(=O)c1cc2c(cc1F)nc(N)c1cncn12)[C@@H]1COc2cc(-c3csc(C(F)(F)F)n3)ccc21 [Ff-231, (S)-4-amino-7-fluoro-N-methyl-N-(6-(2-(trifluoromethyl)thiazol-4-yl)-2,3-dihydrobenzofuran-3-yl)imidazo[1,5-a]quinoxaline-8-carboxamide] | 100 to 1000 nM
CN(C(=O)c1cc2c(cc1F)nc(N)c1cncn12)[C@@H]1COc2cc(-c3cnc(C(F)(F)F)s3)ccc21 [Ff-232, (S)-4-amino-7-fluoro-N-methyl-N-(6-(2-(trifluoromethyl)thiazol-5-yl)-2,3-dihydrobenzofuran-3-yl)imidazo[1,5-a]quinoxaline-8-carboxamide] | < 100 nM
CN(C(=O)c1cc2c(cc1F)nc(N)c1cncn12)[C@@H]1COc2cc(-c3cnc(C(F)F)s3)ccc21 [Ff-233, (S)-4-amino-N-(6-(2-(difluoromethyl)thiazol-5-yl)-2,3-dihydrobenzofuran-3-yl)-7-fluoro-N-methylimidazo[1,5-a]quinoxaline-8-carboxamide] | < 100 nM
Nc1nc2cc(F)c(C(=O)N3CCO[C@@H]4Cc5cc(-c6cnn(C(F)(F)F)c6)ccc5[C@@H]43)cc2n2cncc12 [Ff-234, (4-amino-7-fluoroimidazo[1,5-a]quinoxalin-8-yl)((4aS,9aR)-7-(1-(trifluoromethyl)-1H-pyrazol-4-yl)-2,3,9,9a-tetrahydroindeno[2,1-b][1,4]oxazin-4(4aH)-yl)methanone] | 100 to 1000 nM
Nc1nc2cc(F)c(C(=O)N3CCO[C@@H]4Cc5cc(-c6cnn(C(F)F)c6)ccc5[C@@H]43)cc2n2cncc12 [Ff-235, (4-amino-7-fluoroimidazo[1,5-a]quinoxalin-8-yl)((4aS,9aR)-7-(1-(difluoromethyl)-1H-pyrazol-4-yl)-2,3,9,9a-tetrahydroindeno[2,1-b][1,4]oxazin-4(4aH)-yl)methanone] | < 100 nM
Nc1nc2cc(F)c(C(=O)N3CCO[C@@H]4Cc5cc(C6CC6)ccc5[C@@H]43)cc2n2cncc12 [Ff-236, (4-amino-7-fluoroimidazo[1,5-a]quinoxalin-8-yl)((4aS,9aR)-7-cyclopropyl-2,3,9,9a-tetrahydroindeno[2,1-b][1,4]oxazin-4(4aH)-yl)methanone] | 100 to 1000 nM
CN(C(=O)c1cc2c(cc1F)nc(N)c1cncn12)[C@@H]1COc2cc(-c3csc(C(F)F)n3)ccc21 [Ff-237, (S)-4-amino-N-(6-(2-(difluoromethyl)thiazol-4-yl)-2,3-dihydrobenzofuran-3-yl)-7-fluoro-N-methylimidazo[1,5-a]quinoxaline-8-carboxamide] | < 100 nM
CN(C(=O)c1cc2c(cc1F)nc(N)c1cncn12)[C@@H]1COc2cc(-c3ccc(C(F)(F)F)cn3)ccc21 [Ff-238, (S)-4-amino-7-fluoro-N-methyl-N-(6-(5-(trifluoromethyl)pyridin-2-yl)-2,3-dihydrobenzofuran-3-yl)imidazo[1,5-a]quinoxaline-8-carboxamide] | < 100 nM
Nc1nc2cc(F)c(C(=O)N3CCO[C@@H]4Cc5cc(-c6ccc(C(F)(F)F)nc6)ccc5[C@@H]43)cc2n2cncc12 [Ff-239, (4-amino-7-fluoroimidazo[1,5-a]quinoxalin-8-yl)((4aS,9aR)-7-(6-(trifluoromethyl)pyridin-3-yl)-2,3,9,9a-tetrahydroindeno[2,1-b][1,4]oxazin-4(4aH)-yl)methanone] | < 100 nM
Nc1nc2cc(F)c(C(=O)N3CCO[C@@H]4Cc5cc(-c6ccc(C(F)(F)F)cc6)ccc5[C@@H]43)cc2n2cncc12 [Ff-240, (4-amino-7-fluoroimidazo[1,5-a]quinoxalin-8-yl)((4aS,9aR)-7-(4-(trifluoromethyl)phenyl)-2,3,9,9a-tetrahydroindeno[2,1-b][1,4]oxazin-4(4aH)-yl)methanone] | 100 to 1000 nM
C[C@H]1CN(C(=O)c2ccc3nc(N)c4cncn4c3c2)[C@H]2c3cc(F)c(C(F)(F)F)cc3C[C@H]2O1 [Ff-246, (4-aminoimidazo[1,5-a]quinoxalin-8-yl)((2S,4aS,9aR)-6-fluoro-2-methyl-7-(trifluoromethyl)-2,3,9,9a-tetrahydroindeno[2,1-b][1,4]oxazin-4(4aH)-yl)methanone] | < 100 nM
C[C@H]1CN(C(=O)c2cc3c(cn2)nc(N)c2cncn23)[C@H]2c3cc(F)c(C(F)(F)F)cc3C[C@H]2O1 [Ff-247, (4-aminoimidazo[1,5-a]pyrido[3,4-e]pyrazin-8-yl)((2S,4aS,9aR)-6-fluoro-2-methyl-7-(trifluoromethyl)-2,3,9,9a-tetrahydroindeno[2,1-b][1,4]oxazin-4(4aH)-yl)methanone] | < 100 nM
C[C@@H]1C[C@@H]2Oc3cc(C(F)(F)F)c(F)cc3[C@@H]2N(C(=O)c2cc3c(cc2F)nc(N)c2cncn23)C1 [Ff-248, (4-amino-7-fluoroimidazo[1,5-a]quinoxalin-8-yl)((3R,4aS,9bS)-8-fluoro-3-methyl-7-(trifluoromethyl)-3,4,4a,9b-tetrahydrobenzofuro[3,2-b]pyridin-1(2H)-yl)methanone] | < 100 nM
C[C@@H]1C[C@@H]2Oc3cc(C(F)(F)F)ccc3[C@@H]2N(C(=O)c2cc3c(cc2F)nc(N)c2cncn23)C1 [Ff-251, (4-amino-7-fluoroimidazo[1,5-a]quinoxalin-8-yl)((3R,4aS,9bS)-3-methyl-7-(trifluoromethyl)-3,4,4a,9b-tetrahydrobenzofuro[3,2-b]pyridin-1(2H)-yl)methanone] | < 100 nM
CN(C(=O)c1cc2c(cc1F)nc(N)c1cncn12)[C@H]1c2ccc(C(F)(F)F)cc2[C@@H]2C[C@@H]21 [Ff-253, 4-amino-7-fluoro-N-methyl-N-((1aR,6R,6aS)-3-(trifluoromethyl)-1,1a,6,6a-tetrahydrocyclopropa[a]inden-6-yl)imidazo[1,5-a]quinoxaline-8-carboxamide] | 100 to 1000 nM
CN(C(=O)c1cc2c(cn1)nc(N)c1cncn12)[C@H]1c2ccc(C(F)(F)F)cc2[C@@H]2C[C@@H]21 [Ff-254, 4-amino-N-methyl-N-((1aR,6R,6aS)-3-(trifluoromethyl)-1,1a,6,6a-tetrahydrocyclopropa[a]inden-6-yl)imidazo[1,5-a]pyrido[3,4-e]pyrazine-8-carboxamide] | 100 to 1000 nM
CN(C(=O)c1cc2c(cc1F)nc(N)c1cncn12)[C@H]1c2ccc(C(F)(F)F)cc2[C@H]2C[C@H]21 [Ff-255, 4-amino-7-fluoro-N-methyl-N-((1aS,6R,6aR)-3-(trifluoromethyl)-1,1a,6,6a-tetrahydrocyclopropa[a]inden-6-yl)imidazo[1,5-a]quinoxaline-8-carboxamide] | 100 to 1000 nM
CN(C(=O)c1cc2c(cn1)nc(N)c1cncn12)[C@H]1c2ccc(C(F)(F)F)cc2[C@H]2C[C@H]21 [Ff-256, 4-amino-N-methyl-N-((1aS,6R,6aR)-3-(trifluoromethyl)-1,1a,6,6a-tetrahydrocyclopropa[a]inden-6-yl)imidazo[1,5-a]pyrido[3,4-e]pyrazine-8-carboxamide] | 100 to 1000 nM

Reference: patent US12448388B2, “PRMT5 inhibitors and uses thereof” (Gilead Sciences, Inc., priority 2023, dated 2025)
